What was measured:
Test in all cases: CYP inhibition, recombinant enzyme, fluorescence
Type in all cases: in vitro ADME
CYP1A2 = biological target: T1, CYP1A2 (Homo sapiens, UniProt P05177); conditions: recombinant CYP1A2, pH 7.4, 10 μM compound, 30 min pre-incubation, read-out: CYP inhibition (%) at 10 μM, 1A2
T1 sequence (P05177 1-516): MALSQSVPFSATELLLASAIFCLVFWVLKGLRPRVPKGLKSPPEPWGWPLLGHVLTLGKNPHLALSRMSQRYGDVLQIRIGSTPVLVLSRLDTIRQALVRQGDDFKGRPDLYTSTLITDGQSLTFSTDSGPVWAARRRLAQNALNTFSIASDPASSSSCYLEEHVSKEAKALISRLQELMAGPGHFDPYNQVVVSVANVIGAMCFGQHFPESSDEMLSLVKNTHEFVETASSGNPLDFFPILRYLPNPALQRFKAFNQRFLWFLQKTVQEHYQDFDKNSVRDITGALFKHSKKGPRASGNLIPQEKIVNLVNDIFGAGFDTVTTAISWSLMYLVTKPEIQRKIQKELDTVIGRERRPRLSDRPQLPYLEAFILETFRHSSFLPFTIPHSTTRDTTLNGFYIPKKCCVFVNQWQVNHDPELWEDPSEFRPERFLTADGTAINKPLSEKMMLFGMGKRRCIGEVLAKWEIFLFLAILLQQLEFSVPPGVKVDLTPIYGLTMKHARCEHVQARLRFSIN
Procedure: (§1) The following Table 8 was referred for the use of a probe substrate, positive control, and isozyme and measurement conditions with respect to the measurement of the inhibitory ability of each substance. [table] […] The buffer spiked with experimental compound was mixed with the same volume of CYP isozyme prep solution so that the final concentration was 10 μM, followed by pre-warming for 10 minutes in a 37° C. fluorescence plate-reader. Each well NRS solution (NADPH Regeneration System: 0.22 mM β-NADP, 2.8 mM glucose-6-phosphate, and 0.6 units/mL of glucose-6-phosphate dehydrogenase) was added, followed by pre-incubation for 30 minutes. Thereafter, the reaction was initiated by adding the substrate to the well subjected to pre-incubation and monitored at intervals of one minute at the measurement wavelength for each substrate for 30 minutes. The measured values obtained from the positive control and the compound of Example 1 were compared with the fluorescence intensity of a negative control (no inhibition or compound) to confirm the inhibitory ability of each compound against isozyme. Inhibitory activity (%) was expressed based on the following criteria: […]

CYP2C19 = CYP2C19 (Homo sapiens, UniProt P33261); conditions: recombinant CYP2C19, pH 7.4, 10 μM compound, 30 min pre-incubation, read-out: CYP inhibition (%) at 10 μM, 2C19
Procedure: as §1

CYP2C9 = CYP2C9 (Homo sapiens, UniProt P11712); conditions: 10 μM compound; for inhibition at 30 min, 10 µM: human, recombinant CYP2C9, pH 7.4, 30 min pre-incubation, read-out: CYP inhibition (%) at 10 μM, 2C9
Procedure: as §1

CYP2D6 = CYP2D6 (Homo sapiens, UniProt P10635); conditions: recombinant CYP2D6, pH 7.4, 10 μM compound, 30 min pre-incubation, read-out: CYP inhibition (%) at 10 μM, 2D6
Procedure: as §1

CYP3A4 = CYP3A4 (Homo sapiens, UniProt P08684); conditions: recombinant CYP3A4, pH 7.4, 10 μM compound, 30 min pre-incubation, read-out: CYP inhibition (%) at 10 μM, 3A4
Procedure: as §1

CYP2C9, sequence (P11712 whole entry): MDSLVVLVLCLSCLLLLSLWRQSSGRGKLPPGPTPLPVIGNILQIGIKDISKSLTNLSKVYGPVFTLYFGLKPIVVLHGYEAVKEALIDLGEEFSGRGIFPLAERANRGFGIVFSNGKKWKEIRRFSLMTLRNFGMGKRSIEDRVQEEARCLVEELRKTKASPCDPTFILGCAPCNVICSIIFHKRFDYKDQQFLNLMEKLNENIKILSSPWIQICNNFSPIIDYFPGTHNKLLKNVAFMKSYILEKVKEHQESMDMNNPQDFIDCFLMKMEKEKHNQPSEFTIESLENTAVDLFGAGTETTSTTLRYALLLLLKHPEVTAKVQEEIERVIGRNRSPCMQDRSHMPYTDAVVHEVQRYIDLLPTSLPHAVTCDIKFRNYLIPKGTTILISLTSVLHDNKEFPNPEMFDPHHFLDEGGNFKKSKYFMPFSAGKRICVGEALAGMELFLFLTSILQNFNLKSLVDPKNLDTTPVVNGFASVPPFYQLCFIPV
CYP3A4, sequence (P08684 whole entry): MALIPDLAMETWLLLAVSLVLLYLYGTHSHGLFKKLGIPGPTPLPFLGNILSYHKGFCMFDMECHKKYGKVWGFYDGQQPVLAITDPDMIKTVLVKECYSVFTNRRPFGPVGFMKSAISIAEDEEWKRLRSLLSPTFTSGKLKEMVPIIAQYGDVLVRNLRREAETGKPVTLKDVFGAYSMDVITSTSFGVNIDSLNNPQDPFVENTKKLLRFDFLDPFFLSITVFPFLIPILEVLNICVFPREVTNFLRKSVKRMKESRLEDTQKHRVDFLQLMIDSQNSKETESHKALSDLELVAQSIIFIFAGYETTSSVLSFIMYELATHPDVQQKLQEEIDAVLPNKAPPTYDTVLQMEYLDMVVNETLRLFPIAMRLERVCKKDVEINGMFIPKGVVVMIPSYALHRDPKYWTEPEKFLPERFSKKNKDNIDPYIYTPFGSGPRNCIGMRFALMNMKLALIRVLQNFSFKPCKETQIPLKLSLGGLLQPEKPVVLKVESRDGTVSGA
CYP2D6, sequence (P10635 whole entry): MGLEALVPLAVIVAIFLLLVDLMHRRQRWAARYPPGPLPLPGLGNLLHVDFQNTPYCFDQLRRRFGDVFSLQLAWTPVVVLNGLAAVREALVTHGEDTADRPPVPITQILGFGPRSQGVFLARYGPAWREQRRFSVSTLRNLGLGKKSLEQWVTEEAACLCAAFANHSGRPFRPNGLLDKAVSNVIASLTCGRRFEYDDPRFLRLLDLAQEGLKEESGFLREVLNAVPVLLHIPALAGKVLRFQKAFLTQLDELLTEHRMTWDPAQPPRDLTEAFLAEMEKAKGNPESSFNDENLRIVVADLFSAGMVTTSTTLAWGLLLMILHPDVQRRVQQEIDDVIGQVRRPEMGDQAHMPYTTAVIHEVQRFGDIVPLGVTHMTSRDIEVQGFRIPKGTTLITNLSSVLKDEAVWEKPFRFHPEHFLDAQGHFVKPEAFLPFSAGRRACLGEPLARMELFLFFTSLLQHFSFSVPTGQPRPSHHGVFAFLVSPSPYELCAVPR
CYP2C19, sequence (P33261 whole entry): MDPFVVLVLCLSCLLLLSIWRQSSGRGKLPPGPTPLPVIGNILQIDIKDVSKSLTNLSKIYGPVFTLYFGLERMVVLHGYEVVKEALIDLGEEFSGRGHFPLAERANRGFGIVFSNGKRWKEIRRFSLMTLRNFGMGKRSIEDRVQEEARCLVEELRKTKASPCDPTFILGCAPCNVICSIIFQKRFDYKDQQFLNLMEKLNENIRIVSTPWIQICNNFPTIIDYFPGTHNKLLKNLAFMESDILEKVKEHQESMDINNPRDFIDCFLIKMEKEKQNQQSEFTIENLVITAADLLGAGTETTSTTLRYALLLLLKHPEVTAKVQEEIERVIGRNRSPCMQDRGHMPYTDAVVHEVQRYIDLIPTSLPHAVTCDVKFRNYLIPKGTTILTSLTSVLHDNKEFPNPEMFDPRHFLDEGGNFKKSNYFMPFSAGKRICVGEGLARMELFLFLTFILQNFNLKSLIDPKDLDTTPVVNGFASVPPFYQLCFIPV

| inhibition at 30 min, 10 µM (CYP1A2) [%] | inhibition at 30 min, 10 µM (CYP2C19) [%] | Inhibitory ability against CYP2C9 (in words) (CYP2C9) | inhibition at 30 min, 10 µM (CYP2C9) [%] | inhibition at 30 min, 10 µM (CYP2D6) [%] | inhibition at 30 min, 10 µM (CYP3A4) [%] | SMILES |
| --- | --- | --- | --- | --- | --- | --- |
| < 50 | < 50 | very high inhibitory ability | > 50 | < 50 | < 50 | CC(=O)N(C1CCC(C)(C)CC1)[C@H]1C[C@@H](C(=O)N2CCOCC2)N(C(=O)[C@@H]2CN(C(C)(C)C)C[C@H]2c2ccc(Cl)cc2)C1.Cl [Comparative Example 2 (A96), N-((3S,5S)-1-((3S,4R)-1-(tert-butyl)-4-(4-chlorophenyl)pyrrolidine-3-carbonyl)-5-(morpholine-4-carbonyl)pyrrolidin-3-yl)-N-(4,4-dimethylcyclohexyl)acetamide hydrochloride] |
| < 50 | < 50 |  | < 50 | < 50 | < 50 | CC(C)C(=O)N([C@H]1C[C@@H](C(=O)N2CCOCC2)N(C(=O)[C@@H]2CN(C(C)(C)C)C[C@H]2c2ccc(Cl)cc2)C1)[C@H]1CC[C@@H](C)CC1.Cl [Example 1, N-((3S,5S)-1-((3S,4R)-1-(tert-butyl)-4-(4-chlorophenyl)pyrrolidine-3-carbonyl)-5-(morpholine-4-carbonyl)pyrrolidin-3-yl)-N-((1s,4R)-4-methylcyclohexyl)isobutyramide hydrochloride] |

— patent publication US20220289731A1, “MELANOCORTIN-4 RECEPTOR AGONISTS” (LG CHEM, LTD., priority 2019, published 2022)
